Laboratory results published in patent US20100016290A1, “AMORPHOUS POLYMORPH OF BAZEDOXIFENE ACETATE” (priority 2008, published 2010).

Legend:
[1] = Form C on ATR-IR sensor in ethanol vapor atmosphere; type: physicochemical; conditions: room temperature
Excerpt: IR spectra (see, e.g. FIG. 2) were acquired by placing a few milligrams of the powder of the sample on a diamond sensor ATR (Attenuated Total Reflection) probe (Dicomp) using a React-IR 4000 system operated at 4 cm^−1 resolution and 128 scans between 650-4000 cm^−1.
Some experiments were executed by creating an ethanol vapor atmosphere around the ATR sensor at room temperature.

[2] = Mortar and pestle trials of Form A under mechanical stress (DSC, XRPD); type: physicochemical; conditions: for decrease in the Enthalpy of Fusion (Form A): after 10 min mixing in reaction solvent
Description: Mortar and pestle trials were conducted to test the behavior of polymorph Form A under mechanical stress and to test and measure the kinetics of conversion of crystalline Form A to Form B under mechanical stress (possibly via amorphous Form C).

Compound	polymorph form present ([1]; after two hours)	transformation of polymorph form ([1]; on ATR sensor)	decrease in the Enthalpy of Fusion (Form A) [2]	amorphous Form C formed under mechanical stress ([2]; confirmed by powder XRD (FIG. 5))
Cc1c(-c2ccc(O)cc2)n(Cc2ccc(OCCN3CCCCCC3)cc2)c2ccc(O)cc12 [Form C, 1-[4-(2-azepan-1-yl-ethoxy)-benzyl]-2-(4-hydroxy-phenyl)-3-methyl-1H-indol-5-ol acetic acid]	only polymorph Form B was present	transform rapidly into polymorph Form B	–	–
CC(=O)O.Cc1c(-c2ccc(O)cc2)n(Cc2ccc(OCCN3CCCCCC3)cc2)c2ccc(O)cc12 [Sample 7]	–	–	About 30%	–
CC(=O)O.Cc1c(-c2ccc(O)cc2)n(Cc2ccc(OCCN3CCCCCC3)cc2)c2ccc(O)cc12 [Sample 8]	–	–	About 50%	significant amount of amorphous Form C
